Laboratory results reported in ChEMBL document CHEMBL4334467, “Synthesis and SAR Study of Carbamoyl Pyridone Bicycle Derivatives as Potent Inhibitors of Influenza Cap-dependent Endonuclease” (J Med Chem, 2019).

What was measured:
Influenza A virus [1] = type: functional, organism-based
Influenza A virus [2] = test: microbe, parasite or virus in culture; type: functional, organism-based; settings: A/WSN/1933(H1N1), MDCK, 72 h

CC(C)N1CN(C(c2ccccc2)c2ccccc2)n2ccc(=O)c(O)c2C1=O
EC50 (Influenza A virus [1]): 80.4 nM
EC50 (Influenza A virus [2]): 165 nM

CC(C)N1C[C@H](C(c2ccccc2)c2ccccc2)n2ccc(=O)c(O)c2C1=O
EC50 (Influenza A virus [1]): 89.2 nM
EC50 (Influenza A virus [2]): 155 nM
